One data set concerns cancer cells. The conditions noted are these: cited from earlier work.
The target in data set [1] is T1, SRC-3 (Homo sapiens, UniProt Q9Y6Q9).
T1 construct: endogenous in cells; host or cells: HCC1143, SUM149PT, SUM159PT, MDA-MB-231, MDA-MB-231-LM3-3
The following applies: receptor interacting domain; cited from earlier work.

In the next data set the test system is MDA-MB-231. Description: Cell cytotoxicity assay (MTT), MDA-MB-231. In kind it is cell-based. The following applies: MDA-MB-231, 72 h, read-out: IC50 cell viability. The method, then: (§1) Cell Culture. Triple negative breast cancer (TNBC) cell lines HCC1143, SUM149PT, SUM159PT, and MDA-MB-231 were obtained from ATCC. The MDA-MB-231-LM3-3 (LM3-3) cell line was developed from lung metastasis derived from a MDA-MB-231-LM2 xenograft tumor in the mammary fat pad of a SCID mouse.
(§2) The HCC1143 cell line was grown in RPMI-1640 medium, SUM149PT and SUM159PT cell lines were grown in F-12 medium, and MDA-MB-231 cells were grown in DMEM. All culture media were supplemented with 10% fetal bovine serum. All cell lines were grown in a humidified incubator containing 5% CO2 at 37° C. Primary hepatocytes were isolated from an adult male mouse (C57BL) by collagenase perfusion (0.8 mg/mL; Sigma-Aldrich, C5138) through the portal vein and maintained in M199 medium with 10% FBS. The viability of freshly isolated hepatocytes was verified using Trypan blue staining.
(§3) Cell Cytotoxicity Assays. TNBC cells (5000 to 7000 cells per well) were seeded in 96-well plates in medium supplemented with 10% FBS. […] Cell viabilities relative to untreated control cells were plotted using Graphpad Prism.

The test system of the next data set is SUM149PT. Put plainly: Cell cytotoxicity assay (MTT), SUM149PT. Format: cell-based. The following applies: 72 h, read-out: IC50 cell viability. As for the experimental part: as §1, §2, §3
The test system of data set [2] is LM3-3 cells. Put plainly: Bufalin and gefitinib cotreatment, cell viability. Format: cell-based.
The target of data set [3] is T1, SRC-3. Description: Western blotting of SRC-3 protein in TNBC cells. In kind it is cell-based. The method, then:
Western Blotting Assays. Cell lysate was prepared by adding RIPA buffer (containing 10 mM Tris-Cl pH 8.0, 1 mM EDTA, 0.5 mM EGTA, 1% Triton X-100, 0.1% sodium deoxycholate, 0.1% SDS, 140 mM NaCl, and protease inhibitors) to cells kept on ice. After spinning samples at 16,000 rpm for 15 minutes at 4 ° C., insoluble materials in the collected cell lysate were precipitated and discarded. The total protein concentration was measured using a Bradford protein assay. An equivalent mass of each sample was loaded and electrophoretically separated by 10% SDS-PAGE. Then, proteins on PAGE the gel were transferred to a PVDF membrane. Anti-SRC-3 (Cell Signaling Technology Co. Cat#2126) and anti-actin (Cell Signaling Technology Co. Cat#8457) were used to probe the membranes.
(In general: In western blotting, separated proteins are transferred to a membrane and probed.)

The test system of the next data set is MDA-MB-231-LM3-3. Description: Cell cytotoxicity assay (MTT), MDA-MB-231-LM3-3. In kind it is cell-based. The conditions noted are these: MDA-MB-231-LM3-3, 72 h, read-out: IC50 cell viability. The method, then: as §1, §2, §3
The subject of data set [4] is LM3-3 cells. Put plainly: Single cell motility assay. In kind it is cell-based. As for the experimental part: Single Cell Motility Assays. Microtiter 96-well plates pre-coated with collagen V were covered with beads provided by a Cell Motility HCS kit (Thermo Scientific Co. Cat# K0800011). LM3-3 cells (500) were seeded in each bead-coated well. […] The cell track areas (pixels) were counted using Image J. To attain statistical significance, more than 50 cell tracks in each sample were counted.

A further data set relates to SUM159PT. Put plainly: Cell cytotoxicity assay (MTT), SUM159PT. The conditions noted are these: 72 h, read-out: IC50 cell viability. Format: cell-based. The method, then: as §1, §2, §3
For the next data set, the system named is HCC1143. Put plainly: Cell cytotoxicity assay (MTT), HCC1143. Format: cell-based. The conditions noted are these: HCC1143, 72 h, read-out: IC50 cell viability. The method, then:
as §1, §2, §3

Data set [5] deals with MDA-MB-231-LM3-3 orthotopic breast tumors. Put plainly: Therapeutic efficacy in an orthotopic TNBC mouse model. In kind it is in vivo. The following applies: 0.75 mg/kg three times per week. The method, then: Therapeutic Efficacy of 3-phospho-bufalin in an Orthotopic TNBC Mouse Model. To establish orthotopic breast tumors, 0.75×10^6 MDA-MB-231-LM3-3 cells were injected into one of the second mammary fat pads of nude mice (Charles River Laboratories, female, 6-7 weeks, n=6/group). When tumors became palpable, generally 14 days after injection, mice were randomized into two groups. The treatment group was then injected with phospho-bufalin subcutaneously (0.75 mg/kg per dose, 3 doses per week) for 3 weeks while the control group received PBS. Tumor lengths and widths were measured three times per week. Tumor sizes were calculated by: (length×width×width)/2.
The therapeutic efficacy of P-Buf was tested in an orthotopic TNBC model. LM3-3 cells (0.75×10^6 cells per mouse) were inoculated into the second pair of mammary gland fat pads of nude mice (female, […]). The mice were randomized into two groups based on luciferase imaging (n=6 per group). Fourteen days after tumor inoculation, the treatment group began receiving P-Buf (0.75 mg/kg) three times per week while the control group received PBS. Tumor volumes were measured three times per week. […] At day 31, the mice were euthanized and tumors were harvested. The tumors derived from PBS treated mice weighed ˜2.4 times more than those of the experimental treatment group (FIGS. 8B and C).

A further data set has as its system Female ICR mice. Put plainly: Electrocardiogram (EKG) measurements in mice. In kind it is in vivo, mouse.
A short description of data set [6]: Pharmacokinetic studies of bufalin and 3-phospho-bufalin. The following applies: p-buf 0.5 mg/kg i.p.
Protocol: Five quality control (QC) samples at 10 ng/mL, 20 ng/mL, 500 ng/mL, 4000 ng/mL and 8000 ng/mL of plasma were prepared independently of those used for the calibration curves. QC samples were prepared on the day of analysis in the same way as the calibration standards.
Standards, QC samples, and unknown samples were injected into a LC/MS/MS machine for quantitative analysis. […] For i.p. injected P-Buf, the PK trace was fittedto a non-compartmental extravascular model.
P-Buf was dissolved in PBS and administered intraperitoneally at the same dose.
For the next data set, the system named is mouse heart tissues. Put plainly: H-E staining of mouse heart tissues. In kind it is in vivo. The conditions noted are these: 24 hours after drug administration.
Setting [7] is: 3-phospho-bufalin 7.5 mg/kg i.p., +10 min post-injection.
Setting [8] is: 3-phospho-bufalin 7.5 mg/kg i.p., −5 min post-injection (baseline).
Where [9] appears, read: 3-phospho-bufalin 11.25 mg/kg i.p., +5 min post-injection.
[10] abbreviates: 3-phospho-bufalin 11.25 mg/kg i.p., +10 min post-injection.
[11] abbreviates: 3-phospho-bufalin 11.25 mg/kg i.p., +15 min post-injection.
Setting [12] is: 3-phospho-bufalin 11.25 mg/kg i.p., −5 min post-injection (baseline).

These results are taken from patent publication US20180002371A1 (BAYLOR COLLEGE OF MEDICINE, priority 2014, published 2018).

One may read the IC50 as the concentration at which inhibition is half-maximal.

Molecules are shown by their SMILES.

T1 sequence (Q9Y6Q9 whole entry): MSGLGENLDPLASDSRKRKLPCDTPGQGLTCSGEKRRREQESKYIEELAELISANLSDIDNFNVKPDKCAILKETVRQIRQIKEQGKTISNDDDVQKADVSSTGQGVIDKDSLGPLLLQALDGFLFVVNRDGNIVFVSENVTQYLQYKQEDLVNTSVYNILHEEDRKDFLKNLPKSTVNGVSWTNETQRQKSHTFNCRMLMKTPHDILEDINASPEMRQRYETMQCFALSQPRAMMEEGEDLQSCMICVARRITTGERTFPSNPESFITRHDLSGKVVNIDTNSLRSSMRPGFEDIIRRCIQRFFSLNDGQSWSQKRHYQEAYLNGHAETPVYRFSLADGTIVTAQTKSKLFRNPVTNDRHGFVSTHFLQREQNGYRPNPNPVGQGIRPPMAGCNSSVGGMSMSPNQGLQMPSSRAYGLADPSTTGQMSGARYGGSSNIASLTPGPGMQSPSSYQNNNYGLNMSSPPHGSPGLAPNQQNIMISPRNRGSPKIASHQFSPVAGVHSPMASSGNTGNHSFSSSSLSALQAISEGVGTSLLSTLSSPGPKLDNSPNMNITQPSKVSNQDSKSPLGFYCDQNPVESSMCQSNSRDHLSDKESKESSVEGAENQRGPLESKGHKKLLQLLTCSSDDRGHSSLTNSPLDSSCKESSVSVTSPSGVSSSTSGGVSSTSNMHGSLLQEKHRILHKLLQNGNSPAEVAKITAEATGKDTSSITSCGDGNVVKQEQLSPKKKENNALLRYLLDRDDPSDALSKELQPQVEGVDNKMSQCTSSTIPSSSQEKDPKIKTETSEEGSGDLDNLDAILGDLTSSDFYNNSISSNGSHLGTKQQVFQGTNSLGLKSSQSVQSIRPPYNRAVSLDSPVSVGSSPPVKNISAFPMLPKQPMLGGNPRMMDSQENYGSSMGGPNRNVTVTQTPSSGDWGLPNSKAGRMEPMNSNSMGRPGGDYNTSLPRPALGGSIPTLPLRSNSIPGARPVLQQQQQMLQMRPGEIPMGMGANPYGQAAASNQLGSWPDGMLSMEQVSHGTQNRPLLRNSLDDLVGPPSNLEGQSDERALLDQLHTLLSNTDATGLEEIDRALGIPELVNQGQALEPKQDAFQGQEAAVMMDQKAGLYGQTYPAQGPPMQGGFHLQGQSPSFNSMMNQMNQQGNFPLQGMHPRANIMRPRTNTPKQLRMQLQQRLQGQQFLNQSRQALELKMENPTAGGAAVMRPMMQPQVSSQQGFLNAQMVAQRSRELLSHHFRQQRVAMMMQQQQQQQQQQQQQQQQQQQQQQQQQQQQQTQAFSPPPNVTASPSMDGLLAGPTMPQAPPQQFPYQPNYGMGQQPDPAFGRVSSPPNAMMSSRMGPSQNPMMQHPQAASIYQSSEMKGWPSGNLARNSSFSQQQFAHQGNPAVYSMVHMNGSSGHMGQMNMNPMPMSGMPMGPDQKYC
Protocol for Female ICR mice: Electrocardiogram (EKG) Measurements. […] Non-invasive EKG recordings were made using the ECGenie system (Mouse Specifics) at several subsequent time points. […] Data acquisition was performed using the program LabChart 6 (ADlnstruments). Individual EKG signals were then evaluated using e-MOUSE physiologic waveform analysis software (Mouse Specifics) as previously described.

Consider `C[C@]12CC[C@H](O)C[C@H]1CC[C@@H]1[C@@H]2CC[C@]2(C)[C@@H](c3ccc(=O)oc3)CC[C@]12O` [Bufalin, bufalin], for which the IC50 values result in the data set with cancer cells was “low nM range”. Also, the “binding to SRC-3” value at SRC-3 [1] is “directly binds to SRC-3 in its receptor interacting domain”. The IC50 in the data set with MDA-MB-231 is less than 0.02 µM; with SUM149PT it was less than 0.02 µM; with MDA-MB-231-LM3-3 it was less than 0.02 µM; with SUM159PT it was less than 0.02 µM; with HCC1143, 0.0718 µM. Further, the “synergy with gefitinib on cell viability” value with LM3-3 cells [2] (5 or 10 nM bufalin with gefitinib, LM3-3 cells) is reported as “synergize with gefitinib”. Moreover, the SRC-3 protein expression result at SRC-3 [3] (100 nM, HCC1143, SUM149PT, SUM159PT, MDA-MB-231, MDA-MB-231-LM3-3) is given as “downregulate SRC-3 protein expression”. The “SRC-3 protein level, dose dependence” value on SRC-3 [3] (MDA-MB-231-LM3-3) is given as “downregulated SRC-3 in MDA-MB-231-LM3-3 in a dose-dependent manner”. In the data set with LM3-3 cells [4] (12 hour time point), the “toxicity toward LM3-3 cells under motility assay conditions” value was “minimal toxicity”. Further, the “motility of LM3-3 cells” value in the data set with LM3-3 cells [4] (increasing concentrations of bufalin) is “decreased with increasing concentrations of bufalin”.

Regarding `COc1cc2ncnc(Nc3ccc(F)c(Cl)c3)c2cc1OCCCN1CCOCC1` [gefitinib], the “toxicity in LM3-3 cells” value in the data set on LM3-3 cells [2] (gefitinib alone, up to 20 μM) is reported as “minimal toxicity”.

In the case of `C[C@]12CC[C@H](OP(=O)(O)O)C[C@H]1CC[C@@H]1[C@@H]2CC[C@]2(C)[C@@H](c3ccc(=O)oc3)CC[C@]12O` [3-Phospho-Bufalin, 3-Phospho-bufalin], in [5] (day 31), the “tumor weight, PBS treated mice relative to treatment group” value is given as roughly 2.4 times. The “TNBC tumor growth (tumor volume)” value in data set [5] (nude mice, LM3-3 tumors) is reported as “can significantly inhibit TNBC tumor growth”. Moreover, in the data set with Female ICR mice (7.5 mg/kg and 11.25 mg/kg i.p.), the “changes in EKG parameters” value is recorded as “no significant changes in EKG parameters were observed”. In the data set on Female ICR mice (setting [7]), this compound registered an HR of 788.7 ± 1.2 BPM, a QRS of 11.0 ± 0.1 ms, a QT of 38.2 ± 0.9 ms and a QTc of 43.8 ± 1.0 ms. In the data set with Female ICR mice (setting [7]), this compound showed an RR of 76.1 ± 0.1 ms and an ST of 27.6 ± 0.9 ms. Besides, in the data set with Female ICR mice (setting [8]), the HR is 754.7 ± 6.6 BPM, the QRS was 10.6 ± 0.1 ms, the QT is 40.2 ± 0.6 ms and the QTc was 45.0 ± 0.5 ms. Besides, in the data set on Female ICR mice (setting [8]), the RR is reported as 79.6 ± 0.7 ms and the ST is given as 30.1 ± 0.7 ms. In the data set on Female ICR mice (setting [9]), this compound registered an HR of 779.7 ± 1.5 BPM, a QRS of 10.9 ± 0.1 ms, a QT of 37.1 ± 0.3 ms and a QTc of 42.3 ± 0.4 ms. For the same compound, in the data set with Female ICR mice (setting [9]), the RR is given as 77.0 ± 0.1 ms and the ST is 26.7 ± 0.4 ms. Moreover, in the data set with Female ICR mice (setting [10]), the HR was 761.3 ± 7.5 BPM, the QRS worked out at 11.1 ± 0.2 ms, the QT stood at 38.1 ± 0.6 ms and the QTc was 43.0 ± 0.6 ms. For the same compound, in the data set with Female ICR mice (setting [10]), the RR was found to be 78.8 ± 0.8 ms and the ST amounted to 26.6 ± 0.5 ms. In the data set on Female ICR mice (setting [11]), this compound returned an HR of 755.0 ± 1.0 BPM, a QRS of 11.5 ± 0.1 ms, a QT of 39.1 ± 0.9 ms and a QTc of 43.9 ± 0.9 ms. In the data set on Female ICR mice (setting [11]), the RR came out at 79.5 ± 0.1 ms and the ST was 28.1 ± 0.8 ms. In the data set with Female ICR mice (setting [12]), this compound displayed an HR of 798.0 ± 12.8 BPM, a QRS of 10.6 ± 0.3 ms, a QT of 39.1 ± 2.4 ms and a QTc of 45.1 ± 2.9 ms. In addition, in the data set on Female ICR mice (setting [12]), the RR came out at 75.8 ± 0.2 ms and the ST was found to be 29.0 ± 2.2 ms. In data set [6] (mice), this compound gave an AUCInf of 46 ± 18 nM·h and an AUClast/D of 0.075 ± 0.044 µM·kg·h/mg. The “conversion to parent bufalin in vivo” value in data set [6] (free bufalin detected in plasma) is on record as “can be converted to parent bufalin in vivo”. Also, the “histological examination of cardiomyocytes” value with mouse heart tissues is recorded as “little damage to cardiomyocytes”.
